Results as given in patent US8722849B2, “Polypeptides” (Novo Nordisk A/S, priority 2011, dated 2014).
Starred links: 1 amine or outer side, 2 acyl side, 3 side chain; linkers in the order of their positions; H or OH if unused. Positions of bridges follow the written chain, without caps; N, C: chain ends. Residues, ends and D or L forms follow the SMILES beside them. *: point of attachment. C20 diacid = O=C(O)CCCCCCCCCCCCCCCCCCC(=O)*; γGlu = O=C(O)[C@H](CCC(=O)[*:2])N[*:1]

Assays:
food intake = assay: Assay (I) efficacy testing on appetite (food intake), ad libitum fed rat model; assay type: in vivo, Sprague Dawley (SD) rats; conditions: 3 nmol/kg
Description: In the following examples reference is made to the following Assays: • Assay (I)— Experimental protocol for efficacy testing on appetite using an ad libitum fed rat model • ASSAY (II)a—Functional assay—Human calcitonin and amylin receptor assay • ASSAY (II)b—Functional assay—Rat calcitonin and rat amylin receptor assays • ASSAY (III)—ThT fibrillation assays for the assessment of physical stability of protein formulations • ASSAY (IV)—Determination of solubility • ASSAY (V)—Determination of binding to the human amylin receptor • ASSAY (VI)—Determination of the binding to the rat amylin receptor • ASSAY (VII)—Determination of binding to the human calcitonin receptor • ASSAY (VIII)—Determination of binding to the rat calcitonin receptor • ASSAY (IX)—pK—Determination of T % in mini-pig • ASSAY (X)—pK—Determination of T % in rat ASSAY (I)—Experimental Protocol for Efficacy Testing on Appetite Using an Ad Libitum Fed Rat Model
Sprague Dawley (SD) rats from Taconic Europe, Denmark are used for the experiments. The rats have a body weight 200-250 g at the start of experiment. The rats arrive at least 10-14 days before start of experiment to allow acclimatization to experimental settings. During this period the animals are handled at least 2 times. After arrival rats are housed individually for one week in a reversed light/dark phase (meaning that lights are off during daytime and on during nighttime) […]. Since rats are normally active and eat their major part of their daily food intake during the dark period, rats are dosed in the morning right before lights are turned off. This set-up results in the lowest data variation and highest test sensitivity. The experiment is conducted in the rats' home cages and rats have free access to food and water throughout the acclimatization period and the experiment period. Each dose of derivative is tested in a group of 5-8 rats. A vehicle group of 6-8 rats is included in each set of testing. Rats are dosed once according to body weight with a 0.01-3 mg/kg solution administered intraperitoneally (ip), orally (po) or subcutaneously (sc). The time of dosing is recorded for each group. After dosing, the rats are returned to their home cages, where they then have access to food and water. The food consumption is recorded individually continuously by on-line registration or manually every hour for 7 hours, and then after 24 h and sometimes 48 h. At the end of the experimental session, the animals are euthanised.
The individual data are recorded in Microsoft excel sheets. Outliers are excluded after applying the Grubbs statistical evaluation test for outliers, and the result is presented graphically using the GraphPad Prism program.

[1] = Assay (III) ThT fibrillation assay for physical stability; assay type: physicochemical; conditions: ThT fibrillation assay
Summary of the method: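 Freshly prepared formulations, pH-adjusted, with 1 μM ThT; four or eight replicates incubated at 37 °C under 960 rpm orbital shaking. Fluorescence (ex 444/em 485 nm) read every 20 min; […]. Peptide concentration measured by RP-HPLC before and after the run.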

SMILES	Food intake reduction 0-24 h 3 nmol/kg (%) (food intake)	Food intake reduction 24-48 h 3 nmol/kg (%) (food intake)	ThT pH 4.0 lag time [1]	ThT pH 4.0 lag time (h) [1]
CC[C@H](C)[C@H](NC(=O)[C@@H]1CCCN1C(=O)CNC(=O)[C@H](Cc1ccccc1)NC(=O)[C@H](CC(N)=O)NC(=O)[C@H](CC(N)=O)NC(=O)[C@H](CO)NC(=O)[C@H](CO)NC(=O)[C@H](Cc1c[nH]cn1)NC(=O)[C@H](Cc1c[nH]cn1)NC(=O)[C@H](CC(C)C)NC(=O)[C@H](Cc1ccccc1)NC(=O)[C@H](CCC(=O)O)NC(=O)[C@H](C)NC(=O)[C@H](CC(C)C)NC(=O)[C@H](CCCNC(=N)N)NC(=O)[C@H](CCC(N)=O)NC(=O)[C@@H](NC(=O)[C@H](C)NC(=O)[C@@H]1CSSC[C@H](NC(=O)[C@H](Cc2c[nH]cn2)NC(=O)[C@H](Cc2c[nH]cn2)NC(=O)CC[C@H](NC(=O)CCCCCCCCCCCCCCCCCCC(=O)O)C(=O)O)C(=O)N[C@@H](CC(N)=O)C(=O)N[C@@H]([C@@H](C)O)C(=O)N[C@@H](C)C(=O)N[C@@H]([C@@H](C)O)C(=O)N1)[C@@H](C)O)C(=O)N[C@@H](CC(C)C)C(=O)N1CCC[C@H]1C(=O)N1CCC[C@H]1C(=O)N[C@H](C(=O)N[C@@H](CC(N)=O)C(=O)N[C@H](C(=O)NCC(=O)N[C@@H](CO)C(=O)N[C@@H](CC(N)=O)C(=O)N[C@H](C(=O)N[C@@H](Cc1ccc(O)cc1)C(N)=O)[C@@H](C)O)C(C)C)[C@@H](C)O [Example 17, N-alpha-[(S)-4-Carboxy-4-(19-carboxynonadecanoylamino)butyryl]-His-[His1,Glu14,His17]-pramlintide] ({C20 diacid-γGlu}-HHCNTATCATQRLAEFLHHSSNNFGPILPPTNVGSNTY-NH2; disulfide 3-8 (inferred); C-terminus assumed)	40%	22%	30.3 h	30.3 h
CC[C@H](C)[C@H](NC(=O)[C@@H]1CCCN1C(=O)CNC(=O)[C@H](Cc1ccccc1)NC(=O)[C@H](CC(N)=O)NC(=O)[C@H](CC(N)=O)NC(=O)[C@H](CO)NC(=O)[C@H](CO)NC(=O)[C@H](Cc1c[nH]cn1)NC(=O)[C@H](Cc1c[nH]cn1)NC(=O)[C@H](CC(C)C)NC(=O)[C@H](Cc1ccccc1)NC(=O)[C@H](CCC(=O)O)NC(=O)[C@H](C)NC(=O)[C@H](CC(C)C)NC(=O)[C@H](CCCNC(=N)N)NC(=O)[C@H](CCC(N)=O)NC(=O)[C@@H](NC(=O)[C@H](C)NC(=O)[C@@H]1CSSC[C@H](NC(=O)CC[C@H](NC(=O)CCCCCCCCCCCCCCCCCCC(=O)O)C(=O)O)C(=O)N[C@@H](CC(N)=O)C(=O)N[C@@H]([C@@H](C)O)C(=O)N[C@@H](C)C(=O)N[C@@H]([C@@H](C)O)C(=O)N1)[C@@H](C)O)C(=O)N[C@@H](CC(C)C)C(=O)N1CCC[C@H]1C(=O)N1CCC[C@H]1C(=O)N[C@H](C(=O)N[C@@H](CC(N)=O)C(=O)N[C@H](C(=O)NCC(=O)N[C@@H](CO)C(=O)N[C@@H](CC(N)=O)C(=O)N[C@H](C(=O)N[C@@H](Cc1ccc(O)cc1)C(N)=O)[C@@H](C)O)C(C)C)[C@@H](C)O [Example 28, N-alpha-[(S)-4-Carboxy-4-(19-carboxynonadecanoylamino)butyryl]-[des1,Glu14,His17]-pramlintide] ({C20 diacid-γGlu}-CNTATCATQRLAEFLHHSSNNFGPILPPTNVGSNTY-NH2; disulfide 1-6 (inferred))	39%	36%		9.3 h
